According to US12692221B2 (priority 2024, dated 2026):

Columns and labels:
A2A (h) = target: T1, A2A (h) (Homo sapiens, UniProt P29274); assay: Radioligand binding A2A (h) (agonist radioligand), [^3H]CGS 21680, HEK-293 cells
T1 construct: expressed in transfected cells; host or cells: HEK-293 cells
Protocol: (§1) Methods—Binding Assays: In vitro binding assays were performed using human recombinant receptors expressed in mammalian cell lines. Receptors were expressed in either HEK-293 or CHO cells depending on the target, and assay conditions (radioligand, concentration, nonspecific competitor, temperature, and incubation time) were optimized for each receptor. All assays were conducted in triplicate, and specific binding was quantified by scintillation counting as the detection method for each listed assay.
(§2) Specific binding was expressed as a percentage of control-specific binding, and percent inhibition was calculated using the formula in Ex. 8 above. Half-maximal inhibitory concentrations (IC50) were determined by non-linear regression analysis of the inhibition curves using the Hill equation (see Ex. 8). Inhibition constants (Ki) were calculated using the Cheng-Prusoff equation (see Ex. 8). KD values used in these calculations had been previously established for each receptor under the assay conditions (see Table 6). Data analysis was performed using software developed at Cerep and validated against SigmaPlot 4.0 for Windows.

BZD (central) = assay: Radioligand binding BZD (central) (agonist radioligand), [^3H]flunitrazepam, rat cerebral cortex
N neuronal α4β2 (h) = target: T2, N neuronal α4β2 (h) (Homo sapiens, UniProt P17787+P43681); assay: Radioligand binding N neuronal α4β2 (h) (agonist radioligand), [^3H]cytisine, SH-SY5Y cells; settings: N neuronal alpha4beta2 (h) (agonist radioligand)
T2 construct: expressed in transfected cells; host or cells: SH-SY5Y cells

delta (DOP) (h) = target: T3, delta (DOP) (h) (Homo sapiens, UniProt P41143); assay: Radioligand binding delta (DOP) (h) (agonist radioligand), [^3H]DALE, Chem-1 RBL; settings: delta (DOP) (h) (agonist radiolig.)
T3 construct: expressed in transfected cells; host or cells: Chem-1 RBL
Protocol: as §1, §2

5-HT1A (h) = target: T4, 5-HT1A (h) (Homo sapiens, UniProt P08908); assay: Radioligand binding 5-HT1A (h) (agonist radioligand), [^3H]8-OH-DPAT, HEK-293 cells
T4 construct: expressed in transfected cells; host or cells: HEK-293 cells
T4 sequence (P08908 1-422): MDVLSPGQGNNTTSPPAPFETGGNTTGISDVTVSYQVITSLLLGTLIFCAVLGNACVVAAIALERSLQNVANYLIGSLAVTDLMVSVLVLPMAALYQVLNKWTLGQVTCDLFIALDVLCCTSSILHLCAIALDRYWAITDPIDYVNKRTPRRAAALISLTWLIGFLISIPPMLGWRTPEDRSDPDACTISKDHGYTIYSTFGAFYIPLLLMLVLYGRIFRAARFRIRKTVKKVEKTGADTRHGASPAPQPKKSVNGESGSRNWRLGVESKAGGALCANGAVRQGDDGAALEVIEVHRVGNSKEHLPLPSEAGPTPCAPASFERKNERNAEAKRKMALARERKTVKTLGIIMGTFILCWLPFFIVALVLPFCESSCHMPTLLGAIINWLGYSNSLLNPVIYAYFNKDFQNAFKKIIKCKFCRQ
Protocol: as §1, §2

5-HT1B (h) = target: T5, 5-HT1B (h) (Homo sapiens, UniProt P28222); assay: Radioligand binding 5-HT1B (h) (antagonist radioligand), [^3H]GR125743, Chem-1 RBL cells
T5 construct: expressed in transfected cells; host or cells: Chem-1 RBL cells

[1] = system: Ca^2+ channel (L, dihydropyridine site); assay: Radioligand binding Ca^2+ channel (L, dihydropyridine site) (antagonist radioligand), [^3H]nitrendipine, rat cerebral cortex
dopamine transporter(h) = target: T6, dopamine transporter(h) (Homo sapiens, UniProt Q01959); assay: Radioligand binding DA transporter (h) (antagonist radioligand), [^3H]BTCP, CHO cells
T6 construct: expressed in transfected cells; host or cells: CHO cells
Protocol: as §1, §2

5-HT transporter (h) = target: T7, 5-HT transporter (h) (Homo sapiens, UniProt P31645); assay: Radioligand binding 5-HT transporter (h) (antagonist radioligand), [^3H]imipramine, CHO cells
T7 construct: expressed in transfected cells; host or cells: CHO cells
Protocol: as §1, §2

COX2(h) = target: T8, COX2(h) (Homo sapiens, UniProt P35354); assay: Enzyme assay COX2(h), arachidonic acid + ADHP, fluorimetry; assay type: biochemical
T8 construct: host or cells: Sf9 cells
T8 sequence (P35354 18-604): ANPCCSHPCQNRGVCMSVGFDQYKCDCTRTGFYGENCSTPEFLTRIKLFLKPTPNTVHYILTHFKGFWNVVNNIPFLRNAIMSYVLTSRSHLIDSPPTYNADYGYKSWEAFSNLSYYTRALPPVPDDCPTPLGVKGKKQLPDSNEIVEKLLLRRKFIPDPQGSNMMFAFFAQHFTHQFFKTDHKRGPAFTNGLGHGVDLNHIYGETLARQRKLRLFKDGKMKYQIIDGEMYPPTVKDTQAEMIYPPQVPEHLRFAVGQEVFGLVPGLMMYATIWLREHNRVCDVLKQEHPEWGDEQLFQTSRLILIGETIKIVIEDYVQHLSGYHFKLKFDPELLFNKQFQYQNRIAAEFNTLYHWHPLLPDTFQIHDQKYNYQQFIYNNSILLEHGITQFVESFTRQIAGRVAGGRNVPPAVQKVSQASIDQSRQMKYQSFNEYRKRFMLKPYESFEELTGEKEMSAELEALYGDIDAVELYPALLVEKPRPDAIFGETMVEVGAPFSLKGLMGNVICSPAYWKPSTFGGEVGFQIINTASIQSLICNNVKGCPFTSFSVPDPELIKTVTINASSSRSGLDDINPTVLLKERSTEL
Protocol: (§3) Methods—Enzyme and Uptake Assays: In vitro enzyme and uptake assays were conducted by Eurofins Discovery using human recombinant enzymes expressed in various mammalian and insect cell lines. Enzymatic activity was measured using appropriate substrates or tracers under conditions optimized for each target, as detailed in Table 7. Reactions were incubated at room temperature for a defined duration and terminated according to established protocols. The measured components (either enzymatic products or remaining substrate) were quantified using fluorimetry, photometry, scintillation counting, or LANCE technology, depending on the assay. Assay-specific parameters, including substrate identity, cell line source, incubation time, and detection method, are provided in Table 7.
(§4) All measurements were performed in technical replicates to ensure reproducibility and data quality.
(§5) Results were expressed both as a percentage of control-specific activity and as percent inhibition of control-specific activity. Percent activity was calculated as (measured specific activity/control specific activity)×100, and percent inhibition as 100−[(measured specific activity/control specific activity)×100], based on values obtained in the presence of test compounds. IC50 and EC50 values, along with Hill coefficients (nH), were determined by nonlinear regression analysis of inhibition or concentration-response curves generated from mean replicate values. Hill curve fitting was performed as previously described using software developed at Cerep and validated against SigmaPlot® 4.0 for Windows® (© 1997 by SPSS Inc.).

Lck kinase (h) = target: T9, Lck kinase (h) (Homo sapiens, UniProt P06239); assay: Enzyme assay Lck kinase (h), LANCE; assay type: biochemical
T9 construct: host or cells: insect cells
Protocol: as §3, §4, §5

T9 sequence (P06239 whole entry): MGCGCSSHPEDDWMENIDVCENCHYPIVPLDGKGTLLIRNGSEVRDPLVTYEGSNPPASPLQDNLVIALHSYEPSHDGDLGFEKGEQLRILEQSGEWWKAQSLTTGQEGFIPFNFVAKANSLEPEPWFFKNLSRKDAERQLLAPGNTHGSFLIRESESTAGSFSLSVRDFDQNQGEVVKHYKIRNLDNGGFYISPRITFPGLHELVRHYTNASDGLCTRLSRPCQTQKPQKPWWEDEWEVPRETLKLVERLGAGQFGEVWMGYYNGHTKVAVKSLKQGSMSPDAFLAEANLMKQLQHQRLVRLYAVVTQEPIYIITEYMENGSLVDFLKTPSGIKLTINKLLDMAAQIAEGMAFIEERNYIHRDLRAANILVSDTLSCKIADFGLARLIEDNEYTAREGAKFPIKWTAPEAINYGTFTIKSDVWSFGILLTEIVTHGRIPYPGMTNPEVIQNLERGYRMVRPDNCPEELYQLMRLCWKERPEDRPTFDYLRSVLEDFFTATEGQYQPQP
T3 sequence (P41143 whole entry): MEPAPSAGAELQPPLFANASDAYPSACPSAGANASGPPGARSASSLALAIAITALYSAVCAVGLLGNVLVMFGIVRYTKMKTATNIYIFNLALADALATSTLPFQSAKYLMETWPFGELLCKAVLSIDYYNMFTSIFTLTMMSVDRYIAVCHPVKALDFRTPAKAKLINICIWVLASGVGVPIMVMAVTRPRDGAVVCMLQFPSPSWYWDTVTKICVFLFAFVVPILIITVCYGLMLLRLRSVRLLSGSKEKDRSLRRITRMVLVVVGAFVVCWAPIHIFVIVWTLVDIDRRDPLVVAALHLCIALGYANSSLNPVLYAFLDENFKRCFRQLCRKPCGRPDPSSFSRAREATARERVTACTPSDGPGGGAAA
T5 sequence (P28222 whole entry): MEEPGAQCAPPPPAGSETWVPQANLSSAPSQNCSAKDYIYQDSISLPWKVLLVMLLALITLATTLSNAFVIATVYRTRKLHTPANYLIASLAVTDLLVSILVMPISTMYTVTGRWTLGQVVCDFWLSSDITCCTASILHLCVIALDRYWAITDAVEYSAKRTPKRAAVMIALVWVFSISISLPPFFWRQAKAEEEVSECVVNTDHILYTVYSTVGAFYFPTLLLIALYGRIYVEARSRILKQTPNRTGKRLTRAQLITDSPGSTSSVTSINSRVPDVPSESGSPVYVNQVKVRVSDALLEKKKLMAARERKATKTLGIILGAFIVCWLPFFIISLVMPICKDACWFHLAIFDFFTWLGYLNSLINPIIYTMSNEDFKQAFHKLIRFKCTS
T1 sequence (P29274 whole entry): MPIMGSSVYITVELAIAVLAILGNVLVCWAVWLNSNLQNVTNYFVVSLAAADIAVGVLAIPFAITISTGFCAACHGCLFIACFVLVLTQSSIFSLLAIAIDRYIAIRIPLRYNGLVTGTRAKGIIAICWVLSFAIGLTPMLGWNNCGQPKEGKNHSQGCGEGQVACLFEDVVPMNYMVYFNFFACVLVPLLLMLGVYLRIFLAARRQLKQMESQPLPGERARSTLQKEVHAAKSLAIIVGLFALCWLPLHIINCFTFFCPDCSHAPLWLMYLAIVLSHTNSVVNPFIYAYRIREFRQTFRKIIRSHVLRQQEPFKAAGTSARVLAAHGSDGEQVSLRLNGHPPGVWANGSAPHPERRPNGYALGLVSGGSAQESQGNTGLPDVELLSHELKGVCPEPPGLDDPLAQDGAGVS
T6 sequence (Q01959 whole entry): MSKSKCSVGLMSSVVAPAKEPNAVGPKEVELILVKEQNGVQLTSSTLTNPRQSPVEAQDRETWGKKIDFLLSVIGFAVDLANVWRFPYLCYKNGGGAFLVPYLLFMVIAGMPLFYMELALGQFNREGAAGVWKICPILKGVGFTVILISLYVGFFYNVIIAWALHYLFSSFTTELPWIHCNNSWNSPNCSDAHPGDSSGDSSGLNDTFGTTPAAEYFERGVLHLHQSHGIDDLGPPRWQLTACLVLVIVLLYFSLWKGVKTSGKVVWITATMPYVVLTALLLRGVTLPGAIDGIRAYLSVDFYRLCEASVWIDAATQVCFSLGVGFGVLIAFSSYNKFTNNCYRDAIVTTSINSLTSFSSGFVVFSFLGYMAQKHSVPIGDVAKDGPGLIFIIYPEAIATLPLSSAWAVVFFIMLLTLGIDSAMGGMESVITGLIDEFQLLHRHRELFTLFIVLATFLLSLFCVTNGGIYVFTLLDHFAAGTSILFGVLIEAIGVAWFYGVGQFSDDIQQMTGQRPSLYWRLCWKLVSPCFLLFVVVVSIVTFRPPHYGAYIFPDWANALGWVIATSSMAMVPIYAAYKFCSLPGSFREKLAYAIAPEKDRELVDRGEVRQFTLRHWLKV
T2 sequence (P43681 29-627 limits assumed): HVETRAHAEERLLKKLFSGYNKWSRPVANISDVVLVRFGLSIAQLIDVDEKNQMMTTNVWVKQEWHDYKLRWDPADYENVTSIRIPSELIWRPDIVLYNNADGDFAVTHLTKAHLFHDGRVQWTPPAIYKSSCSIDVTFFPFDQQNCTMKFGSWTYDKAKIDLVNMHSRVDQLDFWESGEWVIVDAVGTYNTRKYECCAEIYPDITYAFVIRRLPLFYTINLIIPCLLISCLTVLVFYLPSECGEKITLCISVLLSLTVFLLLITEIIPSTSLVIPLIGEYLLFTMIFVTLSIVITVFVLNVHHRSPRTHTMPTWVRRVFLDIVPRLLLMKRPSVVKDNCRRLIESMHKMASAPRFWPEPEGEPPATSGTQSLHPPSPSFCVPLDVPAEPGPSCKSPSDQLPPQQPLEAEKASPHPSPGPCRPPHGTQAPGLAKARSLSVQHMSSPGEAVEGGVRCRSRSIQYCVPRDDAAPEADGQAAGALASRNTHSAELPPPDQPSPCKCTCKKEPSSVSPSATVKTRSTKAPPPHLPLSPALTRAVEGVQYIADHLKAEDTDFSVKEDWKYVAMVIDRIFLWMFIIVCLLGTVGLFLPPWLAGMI
T2 sequence (P17787 26-502): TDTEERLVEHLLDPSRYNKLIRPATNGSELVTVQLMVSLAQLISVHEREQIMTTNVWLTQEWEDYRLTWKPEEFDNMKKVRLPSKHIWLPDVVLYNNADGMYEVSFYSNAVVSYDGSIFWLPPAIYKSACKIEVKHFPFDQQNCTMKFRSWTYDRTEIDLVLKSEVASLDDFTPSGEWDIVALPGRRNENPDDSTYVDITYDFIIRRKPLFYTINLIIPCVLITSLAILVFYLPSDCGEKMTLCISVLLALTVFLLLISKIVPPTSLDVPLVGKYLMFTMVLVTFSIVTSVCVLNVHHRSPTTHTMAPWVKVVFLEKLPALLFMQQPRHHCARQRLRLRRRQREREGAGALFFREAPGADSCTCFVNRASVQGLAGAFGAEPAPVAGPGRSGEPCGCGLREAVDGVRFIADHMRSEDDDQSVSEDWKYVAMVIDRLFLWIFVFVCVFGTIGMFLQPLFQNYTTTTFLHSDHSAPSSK
T7 sequence (P31645 whole entry): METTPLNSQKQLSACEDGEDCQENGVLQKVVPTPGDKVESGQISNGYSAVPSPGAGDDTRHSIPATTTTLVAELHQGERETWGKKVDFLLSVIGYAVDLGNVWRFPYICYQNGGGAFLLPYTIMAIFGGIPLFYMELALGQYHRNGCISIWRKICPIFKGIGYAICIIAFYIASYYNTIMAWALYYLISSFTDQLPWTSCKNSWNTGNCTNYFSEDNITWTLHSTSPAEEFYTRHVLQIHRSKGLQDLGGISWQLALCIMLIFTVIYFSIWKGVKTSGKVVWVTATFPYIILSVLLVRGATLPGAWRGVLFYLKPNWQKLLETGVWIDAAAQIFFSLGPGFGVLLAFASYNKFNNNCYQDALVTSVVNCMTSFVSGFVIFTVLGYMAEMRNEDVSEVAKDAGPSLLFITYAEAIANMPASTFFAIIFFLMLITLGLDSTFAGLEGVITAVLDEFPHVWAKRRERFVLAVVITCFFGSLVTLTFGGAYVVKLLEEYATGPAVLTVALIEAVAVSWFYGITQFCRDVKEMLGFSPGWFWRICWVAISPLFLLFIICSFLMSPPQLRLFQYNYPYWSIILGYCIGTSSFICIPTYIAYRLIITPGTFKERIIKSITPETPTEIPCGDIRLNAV

Row | Structure (SMILES) | Mean Percent Inhibition of Control Specific Binding (A2A (h)) [%] | Mean Percent Inhibition of Control Specific Binding (BZD (central)) [%] | Mean Percent Inhibition of Control Specific Binding (N neuronal α4β2 (h)) [%] | Mean Percent Inhibition of Control Specific Binding (delta (DOP) (h)) [%] | Mean Percent Inhibition of Control Specific Binding (5-HT1A (h)) [%] | Mean Percent Inhibition of Control Specific Binding (5-HT1B (h)) [%] | Mean Percent Inhibition of Control Specific Binding [1] [%] | Mean Percent Inhibition of Control Specific Binding (dopamine transporter(h)) [%] | Mean Percent Inhibition of Control Specific Binding (5-HT transporter (h)) [%] | Mean Percent Inhibition of Control Specific Binding (COX2(h)) [%] | Mean Percent Inhibition of Control Specific Binding (Lck kinase (h)) [%]
1 | COCc1cc(CCN)c(O)cc1CC(C)C [2CiBu-2OH-5MM, 2-(2-aminoethyl)-5-isobutyl-4-(methoxymethyl)phenol] | 11.0 | 8.3 | −10.0 | 19.5 | 34.8 | 12.6 | 8.4 | 22.3 | 15.0 | 10.2 | 12.8
2 | COCCc1cc(CCN)c(OC)cc1Br [Compound 2CB-5ME, reference compound] | −21.3 | −3.0 | 7.4 | 9.7 | 98.2 | 91.4 | 0.2 | 6.2 | 8.6 | −10.4 | 23.3
3 | COCc1cc(CCN)c(OC)cc1Br [Compound 2CB-5MM, 2-(4-bromo-2-methoxy-5-(methoxymethyl)phenyl)ethan-1-amine] | 12.2 | −1.8 | −0.1 | 8.5 | 95.1 | 74.2 | 2.7 | 10.7 | −1.3 | −8.0 | 5.9
4 | COCc1cc(CCN)c(OC)cc1CC(C)C [Compound 2CiBu-5MM, 2-[4-isobutyl-2-methoxy-5-(methoxymethyl)phenyl]ethanamine] | 1.1 | 6.6 | −2.6 | 11.9 | 76.5 | 57.3 | −4.6 | 7.7 | 4.9 | −7.0 | −6.6
